Measurements taken from US20230009608A1, “GRK2 INHIBITORS AND USES THEREOF” (Cygnal Therapeutics, Inc., priority 2020, published 2023).

molecular target: T1, GRK2 (Homo sapiens, UniProt P25098); experiment: ADPGlo GRK2 Inhibition Assay (Example 8); assay type: biochemical; details: 7.5 nM GRK2, 10 μM ATP, ADP-Glo; read-out: GRK2 IC50 (nM) (Example 8)
T1 construct: purchased SignalChem A14-10G
T1 sequence (P25098 1-689): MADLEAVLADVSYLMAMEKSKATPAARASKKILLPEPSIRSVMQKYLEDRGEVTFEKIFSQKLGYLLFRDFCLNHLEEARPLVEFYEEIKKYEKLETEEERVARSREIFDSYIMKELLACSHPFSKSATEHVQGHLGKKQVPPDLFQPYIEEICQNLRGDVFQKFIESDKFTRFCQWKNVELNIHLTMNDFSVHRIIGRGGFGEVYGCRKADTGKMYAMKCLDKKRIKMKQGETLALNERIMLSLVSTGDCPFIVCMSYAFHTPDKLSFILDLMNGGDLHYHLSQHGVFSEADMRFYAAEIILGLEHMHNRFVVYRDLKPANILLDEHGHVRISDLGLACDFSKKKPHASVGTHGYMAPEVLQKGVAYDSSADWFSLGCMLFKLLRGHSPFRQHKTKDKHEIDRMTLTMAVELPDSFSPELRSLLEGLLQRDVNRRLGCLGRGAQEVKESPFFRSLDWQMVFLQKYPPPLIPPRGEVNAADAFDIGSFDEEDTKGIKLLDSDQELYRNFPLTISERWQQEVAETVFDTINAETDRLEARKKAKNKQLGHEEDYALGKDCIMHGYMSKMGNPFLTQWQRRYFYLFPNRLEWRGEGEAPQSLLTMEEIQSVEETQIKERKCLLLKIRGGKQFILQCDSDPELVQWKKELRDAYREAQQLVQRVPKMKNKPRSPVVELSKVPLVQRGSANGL
Protocol: HTS was performed using 1 μM compound.
Compounds were dissolved in 100% DMSO, serially diluted tree-fold from 100 μM concentration to 46 nM and transferred (50 nL) into assay ready plate.
Materials: GRK2 was purchased from SignalChem (Cat #A14-10G, Lot #X^645-3). Substrate GRKtide was from SignalChem (Cat #G46-58, Lot #R339-6). ADP-Glo Kinase Assay from Promega (Cat #V9102). Assay buffer consisted of 25 mMv HEPES (pH7.5), 10 mMv MgCl2, 0.01% Tween-20, 1 mM DDT. 384-well white plates were from Greiner […] (Item #784075).
HTS protocol: Take 384 well plate with 50 nL of compound in columns 3-22/DMSO solution 1-2,23-24. Add 2.5 μL assay buffer to columns 23 and 24 using Thermo Scientific Multidrop Combi Dispenser. Add 2.5 μL of 2× enzyme solution (15 nM in 1× assay buffer) using Thermo Scientific Multidrop Combi Reagent Dispenser to all columns except of 23 and 24. Incubate for 15 minutes. Fill plate with 2.5 μL of 2× substrate mix (20 μM ATP and 0.6 mg/nt GRKtide in Ix assay buffer) using Thermo Scientific Multidrop Combi Reagent Dispenser. Spin 15 seconds at 1000 rpm and incubate for 180 min at room temperature. Add 5 μL ADP-Glo reagent to all the wells. Spin 15 seconds at 1000 rpm and incubate for 40 min at room temperature. Add 10 μL Detection solution to all the wells. Incubate for 30 min at room temperature. Read plate in Luminescent modeon BMG PheraStar FSX (gain=3600).
Data Analysis: Data were analyzed in GraphPad Prism 8.0.2. Each HTS plate contains compounds in columns 3-22, controls (enzyme, no compound) in columns 1 and 2, and blanks (no enzyme) in columns 23 and 24. HTS percent inhibition was calculated for each compound from the signal in luminescence units and the mean of the plate controls and the mean of the plate blanks using the following equation: % Inhibition=100*(1−((signal-blank mean)/(control mean-blank mean))). At the final stage of data processing, we obtain dose-response curves, tables and SDF-files with the results of screening for each substance.

SMILES | IC50 [nM]
Cc1nc(CNC(=O)c2cccc(NCc3nnc(-c4ccncn4)n3C)c2)cs1 [compound 61] | 9.8
Cn1c(CNc2cccc(C(=O)NCc3cnn(-c4ccccc4)n3)c2)nnc1-c1ccncn1 [compound 55] | 6.5
Cn1ccnc1[C@@H](NC(=O)c1cccc(NCc2nnc(-c3ccncc3)[nH]2)c1)C1CC1 [compound 34] | 10
Cn1c(CNc2cccc(C(=O)NCc3cccc4cccnc34)c2)nnc1-c1ccncn1 [compound 24] | 61
CCOc1ccc(C(CO)NC(=O)c2cccc(NCc3nnc(-c4ccncn4)n3C)c2)cn1 (stereo not shown) [compound 41] | 1.8
C[C@H](NC(=O)c1cccc(NCc2nnc(-c3ccncn3)n2C)c1)c1cccnc1 [compound 22] | 420
Cc1ccn2c(CNC(=O)c3cccc(NCc4nnc(-c5ccncn5)n4C)c3)cnc2c1 [compound 45] | 3
CN1CCC(NC(=O)c2cccc(NCc3nnc(-c4ccncn4)n3C)c2)c2ccccc21 (stereo not shown) [compound 16] | 37
Cn1nccc1CNC(=O)c1cccc(NCc2nnc(-c3ccncn3)n2C)c1 [compound 51] | 5.7
COc1cccc2c1CC[C@H]2NC(=O)c1cccc(NCc2nnc(-c3ccncn3)n2C)c1 [compound 30] | 15
Cc1cc2c(cc1CNC(=O)c1cccc(NCc3nnc(-c4ccncn4)n3C)c1)OCCO2 [compound 36] | 0.5
Cc1ccc2ncc(CNC(=O)c3cccc(NCc4nnc(-c5ccncn5)n4C)c3)n2c1 [compound 44] | 2.8
Cn1cccc1CNC(=O)c1cccc(NCc2nnc(-c3ccncn3)n2C)c1 [compound 59] | 9.5
Cn1c(CNc2cccc(C(=O)N[C@@H]3COCc4ccccc43)c2)nnc1-c1ccncn1 [compound 31] | 22
Cn1c(CNc2cccc(C(=O)NCc3cnccc3Cl)c2)nnc1-c1ccncn1 [compound 47] | 4.3
Cn1c(CNc2cccc(C(=O)NCc3ccnc(OCC(F)(F)F)c3)c2)nnc1-c1ccncn1 [compound 19] | 17
CC1Cc2cc(CNC(=O)c3cccc(NCc4nnc(-c5ccncn5)n4C)c3)ccc2O1 (stereo not shown) [compound 32] | 22
Cc1cccc(C(CO)NC(=O)c2cccc(NCc3nnc(-c4ccncn4)n3C)c2)c1 (stereo not shown) [compound 39] | 1.1

same assay, conditions: ADPGlo GRK2 enzyme assay; read-out: A: Enzymatic GRK2: IC50 (nM) (Example 8)

SMILES | IC50 [nM]
CC(Cc1nccn1C)NC(=O)c1cccc(NCc2nnc(-c3ccncn3)n2C)c1 (stereo not shown) | 732
Cc1nnc(O)c(C(C)NC(=O)c2cccc(NCc3nnc(-c4ccncn4)n3C)c2)c1C (stereo not shown) | 132
Cn1c(CNc2cccc(C(=O)NC3(CO)CCOc4ccccc43)c2)nnc1-c1ccncn1 (stereo not shown) | 283
Cc1ccc(CNC(=O)c2cccc(NCc3nnc(-c4ccncn4)n3C)c2)c(N2CCOCC2)c1 | 412
CC(C)NS(=O)(=O)Cc1ccccc1CNC(=O)c1cccc(NCc2nnc(-c3ccncn3)n2C)c1 | 69.8
CN1CCN(Cc2ccccc2CNC(=O)c2cccc(NCc3nnc(-c4ccncn4)n3C)c2)CC1 | 159
Cn1c(CNc2cccc(C(=O)NCc3ccccc3S(=O)(=O)N3CCOCC3)c2)nnc1-c1ccncn1 | 52.8
Cn1c(CNc2cccc(C(=O)NC(CO)c3ccccn3)c2)nnc1-c1ccncn1 (stereo not shown) | 177
Cn1c(CNc2cccc(C(=O)NCc3cc4c(nc3O)CCCC4)c2)nnc1-c1ccncn1 | 192
Cn1c(CNc2cccc(C(=O)NC3(c4ncccc4F)CC3)c2)nnc1-c1ccncn1 | 104
Cn1c(CNc2cccc(C(=O)NC3(CO)CCCc4ccccc43)c2)nnc1-c1ccncn1 (stereo not shown) | 651
Cn1c(CNc2cccc(C(=O)NCc3ccc(CO)c(F)c3)c2)nnc1-c1ccncn1 | 103
Cn1c(CNc2cccc(C(=O)NCc3ccc(O)nc3)c2)nnc1-c1ccncn1 | 203
Cn1c(CNc2cccc(C(=O)NCc3cc(Br)cnc3O)c2)nnc1-c1ccncn1 | 103
Cc1cccnc1CNC(=O)c1cccc(NCc2nnc(-c3ccncc3F)n2C)c1 | 312
Cc1ncc2c(n1)CCCC2NC(=O)c1cccc(NCc2nnc(-c3ccncn3)n2C)c1 (stereo not shown) | 108
Cc1ccc(CNC(=O)c2cccc(NCc3nnc(-c4ccncn4)n3C)c2)nc1C | 182

SMILES | IC50 [nM]
COc1cccc([C@@H](C)NC(=O)c2cccc(NCc3nnc(-c4ccncc4)[nH]3)c2)c1 | 81.6
Cn1c(CNc2cccc(C(=O)NC3CCCc4c3ccc(=O)n4C)c2)nnc1-c1ccncn1 (stereo not shown) | > 1000
Cn1c(CNc2cccc(C(=O)NCC3Cc4ccccc4O3)c2)nnc1-c1ccncn1 (stereo not shown) | 208
Cc1ncc(CNC(=O)c2cccc(NCc3nnc(-c4ccncn4)n3C)c2)c(O)n1 | 382
C[C@@H](NC(=O)c1cccc(NCc2nnc(-c3ccncc3)n2CCO)c1)c1ncccc1Cl | 11.9
Cn1c(CNc2cccc(C(=O)NCc3ncccc3-n3cccn3)c2)nnc1-c1ccncn1 | 318
COc1cccc2c1CCC2(CO)NC(=O)c1cccc(NCc2cnc(-c3ccncn3)n2C)c1 (stereo not shown) | 134
Cn1c(CNc2cccc(C(=O)NCc3cc(F)ccc3N3CCOCC3)c2)nnc1-c1ccncn1 | 104
CNS(=O)(=O)Cc1ccccc1CNC(=O)c1cccc(NCc2nnc(-c3ccncn3)n2C)c1 | 68.9
Cn1c(CNc2cc(C(=O)N[C@@H]3COCc4ccccc43)ccn2)nnc1-c1ccncn1 | 18.7
CN(C)c1cccnc1CNC(=O)c1cccc(NCc2nnc(-c3ccncn3)n2C)c1 | 120
COc1ccccc1[C@H](NC(=O)c1cccc(NCc2nnc(-c3ccncn3)n2C)c1)c1noc(C)n1 | 741
Cn1c(CNc2cccc(C(=O)NCc3ccccc3-n3cccn3)c2)nnc1-c1ccncn1 | 184
Cn1c(CNc2cccc(C(=O)NCc3ccccc3CN3CCC(O)C3)c2)nnc1-c1ccncn1 (stereo not shown) | 136
COc1cccc(CCNC(=O)c2cccc(NCc3nnc(-c4ccncn4)n3C)c2)c1 | 340
Cn1c(CNc2cccc(C(=O)NCc3c4c(n[nH]c3=O)CCCC4)c2)nnc1-c1ccncn1 | 531
CNS(=O)(=O)c1cccc(F)c1CNC(=O)c1ccnc(NCc2nnc(-c3ccncn3)n2C)c1 | 15.1

same assay, conditions: Enzyme Assay A, ADPGlo (Example 8); read-out: A: Enzymatic GRK2: IC50 (nM) (Example 8)

SMILES | IC50 [nM]
Cc1cnc(CNC(=O)c2cccc(NCc3nnc(-c4ccncn4)n3C)c2)cn1 | 150
Cn1c(CNc2cccc(C(=O)NCc3ccc(S(C)(=O)=O)cn3)c2)nnc1-c1ccncn1 | 240
Cn1c(CNc2cccc(C(=O)NCc3ccc(F)cc3F)c2)nnc1-c1ccncn1 | 15
Cn1c(CNc2cccc(C(=O)NCc3c[nH]cn3)c2)nnc1-c1ccncn1 | 110
Cc1cc(CNC(=O)c2cccc(NCc3nnc(-c4ccncn4)n3C)c2)c(C)n1-c1ccccc1 | 15
COc1cccc([C@H](C)NC(=O)c2cccc(NCc3nnc(-c4ccncc4)n3C)c2)c1 | 117
COc1cccc(C2(NC(=O)c3cccc(NCc4nnc(-c5ccncn5)n4C)c3)CC2)c1F | 23
CCS(=O)(=O)c1ccc(CNC(=O)c2cccc(NCc3nnc(-c4ccncn4)n3C)c2)nc1 | 100
Cn1c(CNc2cccc(C(=O)NCc3ccc(Br)cn3)c2)nnc1-c1ccncn1 | 140
Cn1c(CNc2cccc(C(=O)N[C@@H](CF)c3ccccc3)c2)nnc1-c1ccncn1 | 97
Cc1cc(CNC(=O)c2cccc(NCc3nnc(-c4ccncn4)n3C)c2)no1 | 110
Cc1ncsc1CNC(=O)c1cccc(NCc2nnc(-c3ccncn3)n2C)c1 | 16
Cn1c(CNc2cccc(C(=O)NCc3ncc(Cl)cn3)c2)nnc1-c1ccncn1 | 240
COc1ccc2c(c1)[C@@H](NC(=O)c1cccc(NCc3nnc(-c4ccncn4)n3C)c1)CCO2 | > 1000
Cc1csc(CNC(=O)c2cccc(NCc3nnc(-c4ccncn4)n3C)c2)n1 [drawing 283] | 100
